Source: PubChem BioAssay (NCI)
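Protocol summary: plate cells (96-well), add compound at 5 concentrations, incubate 48 h, interpolate endpoints linearly. At the GI50, growth is halved. TGI: concentration producing complete growth inhibition.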 Where a SMILES comes first, the peptide text is derived from it.

Assays:
Assay in all cases: inhibition of tumour cell growth, NCI panel, 48 h
[1] = tested on: NCI/ADR-RES ovarian
[2] = tested on: MALME-3M melanoma
[3] = tested on: HL-60(TB) leukemia
[4] = tested on: SK-MEL-2 melanoma
[5] = tested on: UACC-257 melanoma
[6] = tested on: IGROV1 ovarian
[7] = tested on: HT29 colon
[8] = tested on: SNB-75 CNS
[9] = tested on: SR leukemia
[10] = tested on: SK-MEL-28 melanoma

Structure (SMILES) | TGI [1] [µM] | TGI [2] [µM] | GI50 [3] [µM] | TGI [3] [µM] | GI50 [4] [µM] | TGI [4] [µM] | GI50 [5] [µM] | TGI [5] [µM] | GI50 [6] [µM] | TGI [6] [µM] | GI50 [7] [µM] | TGI [7] [µM] | TGI [8] [µM] | GI50 [9] [µM] | TGI [9] [µM] | TGI [10] [µM] | GI50 [1] [µM] | GI50 [2] [µM] | GI50 [8] [µM] | GI50 [10] [µM]
CC(C)CC(NC(=O)C(CC(C)C)NC(=O)C(Cc1cnc[nH]1)NC(=O)C(C)NC(=O)C(NC(=O)C(C)NC(=O)C(Cc1c[nH]c2ccccc12)NC(=O)C(CCC(=O)O)NC(=O)C(N)Cc1ccccc1)C(C)C)C(N)=O (stereo not drawn) (H-FEWAVAHLL-NH2; configuration not given here) | > 12.5 | > 12.5 | > 100 | > 100 | > 100 | > 100 | > 100 | > 100 | > 100 | > 100 | > 100 | > 100 | > 100 | > 100 | > 100 | > 100 | – | – | – | –
COc1ccc(-c2cc(=O)c3c(OC)c(OC)c(OC)c(OC)c3o2)cc1OC | 97.1 | > 100 | – | 59 | – | > 100 | – | > 100 | – | > 100 | – | > 100 | > 100 | – | > 100 | > 100 | – | – | – | –
N#CC(=S)Nc1ccc(Cl)c(Cl)c1 | 65.4 | > 54.7 | 11.8 | 40.9 | – | 33.2 | – | > 54.7 | – | 53.8 | – | 55.4 | 74.7 | – | 67.4 | > 62.7 | – | – | – | –
Clc1cc(Cl)c(Cl)c(-c2nc(-c3cccnc3)cs2)c1 | > 100 | 51.4 | 14.3 | > 100 | 22.1 | 81.9 | 15.3 | 64.8 | 32.8 | > 100 | 12.1 | > 100 | 80.6 | > 100 | > 100 | 34.8 | 8.78 | 18.8 | 23 | 12.9
O=C(O)CC(Nc1ccccc1)C(=O)O (stereo not drawn) | > 100 | > 100 | – | > 100 | – | > 100 | – | > 100 | – | > 100 | – | > 100 | > 100 | – | > 100 | > 100 | – | – | – | –
C#CCN=C(N/N=C/c1ccc([N+](=O)[O-])o1)NS(=O)(=O)c1cc(C)c(Cl)cc1SCC(N)=O | > 100 | 27.7 | 21.1 | > 100 | 4.97 | 18.3 | 13.9 | 27 | 13.9 | 27.2 | 26.3 | > 100 | 59.8 | 17 | 50.1 | 32.7 | 94.3 | 13.6 | 25.8 | 14.5
CN(C)CCCN(c1nc(C(Cl)(Cl)Cl)ns1)c1nc(C(Cl)(Cl)Cl)ns1 | 4.41 | 5.01 | 1.52 | 3.43 | 1.84 | 3.5 | 1.8 | 3.65 | 2.27 | 4.92 | 1.69 | 3.37 | 7.89 | 1.49 | 3.53 | 3.5 | 1.89 | 2.18 | 2.17 | 1.9
CNNCc1ccc(C(=O)NC(C)C)cc1 | > 500 | > 500 | – | > 500 | – | > 500 | > 500 | > 500 | > 500 | > 500 | – | > 500 | > 500 | – | > 375 | > 500 | – | – | > 500 | –
COc1ccc2c(c1)CCc1c(-c3noc4c3CCc3cc(OC)ccc3-4)noc1-2 | > 100 | > 100 | – | > 100 | – | > 100 | – | > 100 | – | > 100 | – | > 100 | > 100 | – | > 100 | > 100 | – | – | – | –
CCCc1cc2cc(-n3nc(C)c4c3CC(C)(C)CC4=O)cc(NC3CCC(O)CC3)c2c(=O)[nH]1 (stereo not drawn) | > 100 | 3.34 | 0.13 | 1.2 | 0.441 | > 100 | 0.372 | > 100 | 0.134 | > 100 | 0.0308 | > 100 | 39.6 | 0.122 | > 100 | > 100 | 0.986 | 0.142 | 1.73 | 0.232
O=C(O)C1NCCc2c1[nH]c1ccccc21 (stereo not drawn) | > 10 | > 100 | > 100 | > 100 | – | > 100 | > 100 | > 100 | > 100 | > 100 | > 100 | > 100 | > 100 | > 100 | > 100 | > 100 | – | > 100 | > 100 | > 100
